Laboratory results from the NIST ThermoML archive (doi:10.1016/j.jct.2017.11.015).

Tests used:
[1] = molar heat capacity at constant pressure; an = ratio of the nth substance listed; details: 100 kPa, Crystal of intercomponent compound 1, Small sample (50 mg) DSC, a2 = 25
[2] = molar heat capacity at constant pressure; details: 101.33 kPa, Crystal, Small sample (50 mg) DSC

[Fe+3].[Fe+3].[O-2].[O-2].[O-2] [ferric oxide] + [Bi+3].[Bi+3].[O-2].[O-2].[O-2]
[1]
Details	molar heat capacity at constant pressure [J/K/mol]
308 K	1355.9
353 K	1430.1
403 K	1482.3
453 K	1520.3
503 K	1543.9
553 K	1563.9
603 K	1587.1
653 K	1610.4
703 K	1628.1
753 K	1644.7
803 K	1658.4
818 K	1662.7

[Bi+3].[Bi+3].[O-2].[O-2].[O-2] [bismuth oxide]
[2]
Details	molar heat capacity at constant pressure [J/K/mol]
333 K	115.4
353 K	117
403 K	120.1
453 K	122.4
503 K	124.6
553 K	126.5
603 K	128
653 K	129.7
703 K	131.4
753 K	132.7
778 K	133.2
803 K	133.3
813 K	133.5
